Results on 10 compounds are retold here after US20170166598A1, “HETEROARYL COMPOUNDS FOR KINASE INHIBITION” (ARIAD PHARMACEUTICALS, INC., priority 2014, published 2017).

A value given as a limit tells only on which side of the number the result lay.

What all share (type): cell-based
Test [1] deals with T1, human EGFR E746-A750 deletion and T790M Mutation (Homo sapiens, UniProt P00533, DEL746-750/T790M).
T1 construct: expressed in transfected cells; host or cells: Ba/F3 (murine pro-B) cells transduced with lentivirus from pLVX-IRES puro
T1 sequence (P00533 with tags, fused parts or gaps DEL746-750/T790M): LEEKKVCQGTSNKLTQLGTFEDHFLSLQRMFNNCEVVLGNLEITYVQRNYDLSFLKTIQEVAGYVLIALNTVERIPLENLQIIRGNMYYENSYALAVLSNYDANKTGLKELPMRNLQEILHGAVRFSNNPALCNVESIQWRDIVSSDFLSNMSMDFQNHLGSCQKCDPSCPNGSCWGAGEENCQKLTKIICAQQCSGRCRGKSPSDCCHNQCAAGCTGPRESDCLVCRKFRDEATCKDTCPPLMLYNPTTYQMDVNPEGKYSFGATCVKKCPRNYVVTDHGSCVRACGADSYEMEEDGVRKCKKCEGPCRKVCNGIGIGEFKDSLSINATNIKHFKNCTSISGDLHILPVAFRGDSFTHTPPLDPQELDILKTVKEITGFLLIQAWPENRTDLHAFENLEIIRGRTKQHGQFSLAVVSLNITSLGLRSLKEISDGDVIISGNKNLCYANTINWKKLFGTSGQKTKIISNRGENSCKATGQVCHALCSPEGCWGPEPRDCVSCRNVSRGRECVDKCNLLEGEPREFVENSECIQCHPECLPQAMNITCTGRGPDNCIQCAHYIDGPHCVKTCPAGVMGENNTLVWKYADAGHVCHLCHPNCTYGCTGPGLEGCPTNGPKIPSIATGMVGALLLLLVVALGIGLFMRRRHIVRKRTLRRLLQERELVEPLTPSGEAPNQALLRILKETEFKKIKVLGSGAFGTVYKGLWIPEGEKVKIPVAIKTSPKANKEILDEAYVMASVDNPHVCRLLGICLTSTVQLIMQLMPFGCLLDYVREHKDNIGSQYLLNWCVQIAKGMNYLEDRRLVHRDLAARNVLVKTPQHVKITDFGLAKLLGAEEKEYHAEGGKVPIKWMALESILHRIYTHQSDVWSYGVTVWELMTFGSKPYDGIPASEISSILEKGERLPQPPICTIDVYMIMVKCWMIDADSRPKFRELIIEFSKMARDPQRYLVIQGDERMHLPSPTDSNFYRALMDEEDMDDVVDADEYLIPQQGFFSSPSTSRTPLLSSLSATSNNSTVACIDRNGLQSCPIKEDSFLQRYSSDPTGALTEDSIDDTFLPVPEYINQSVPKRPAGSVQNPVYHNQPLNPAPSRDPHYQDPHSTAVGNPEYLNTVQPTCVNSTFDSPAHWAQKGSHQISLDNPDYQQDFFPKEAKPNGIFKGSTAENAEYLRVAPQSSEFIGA
Briefly: Ba/F3-EGFR-Del/T790M cell anti-proliferative assay (CellTiter 96 MTS, 72 h). The following applies: Ba/F3-EGFR-Del/T790M cells. The method, then:
An expression vector, pLVX-IRES puro (Clontech) coding for human EGFR E746-A750 deletion and T790M Mutation, was transfected into HEK293 cells by the Trans-Lentiviral ORF Packaging System (Thermo Scientific), to produce virus encoding EGFR exon 19 deletion and T790M mutations. Ba/F3 (DSMZ) cells maintained in RPMI 1640 medium supplemented with 10% fetal bovine serum, 200 μM L-glutamine/200 μg/mL penicillin/200 μg/mL streptomycin (Life Technology) and 10 ng/mL IL-3 (R&D system), were infected by EGFR E746-A750 deletion and T790M Mutation virus and subsequently selected by puromycin (Life Technology) selection and IL-3 depletion. […] The anti-proliferative activity of compounds was determined as follows: BaF3-EGFR-Del/T790M cells seeded in 96 well plates (2500 cells/well) were treated with test compound (dissolved in DMSO) at a series of concentrations (4-fold dilution, top concentration: 10,000 nM). The plates were incubated for 72 h in a 37° C. incubator with 5% CO2, and the number of viable cells in each well were measured indirectly by CellTiter 96® Aqueous One Solution Cell Proliferation Assay (Promega; this assay is a colorimetric method for determining the number of viable cells through measurement of their metabolic activity by detection of enzymatic conversion of tetrazolium salts into blue formazan derivatives). Reagent (20 μL) was added into each well, and the plates were returned to the incubator for 2 h. The absorbance in each well was then measured at 490 nm using an Envision plate reader (Perkin Elmer).

The target of test [2] is T2, human EGFR exon 20 insertion ASV (V769_D770insASV) (Homo sapiens, UniProt P00533, INS769ASV).
T2 construct: expressed in transfected cells; host or cells: Ba/F3 (murine pro-B) cells transduced with lentivirus from pLVX-IRES puro
T2 sequence (P00533 with tags, fused parts or gaps INS769ASV): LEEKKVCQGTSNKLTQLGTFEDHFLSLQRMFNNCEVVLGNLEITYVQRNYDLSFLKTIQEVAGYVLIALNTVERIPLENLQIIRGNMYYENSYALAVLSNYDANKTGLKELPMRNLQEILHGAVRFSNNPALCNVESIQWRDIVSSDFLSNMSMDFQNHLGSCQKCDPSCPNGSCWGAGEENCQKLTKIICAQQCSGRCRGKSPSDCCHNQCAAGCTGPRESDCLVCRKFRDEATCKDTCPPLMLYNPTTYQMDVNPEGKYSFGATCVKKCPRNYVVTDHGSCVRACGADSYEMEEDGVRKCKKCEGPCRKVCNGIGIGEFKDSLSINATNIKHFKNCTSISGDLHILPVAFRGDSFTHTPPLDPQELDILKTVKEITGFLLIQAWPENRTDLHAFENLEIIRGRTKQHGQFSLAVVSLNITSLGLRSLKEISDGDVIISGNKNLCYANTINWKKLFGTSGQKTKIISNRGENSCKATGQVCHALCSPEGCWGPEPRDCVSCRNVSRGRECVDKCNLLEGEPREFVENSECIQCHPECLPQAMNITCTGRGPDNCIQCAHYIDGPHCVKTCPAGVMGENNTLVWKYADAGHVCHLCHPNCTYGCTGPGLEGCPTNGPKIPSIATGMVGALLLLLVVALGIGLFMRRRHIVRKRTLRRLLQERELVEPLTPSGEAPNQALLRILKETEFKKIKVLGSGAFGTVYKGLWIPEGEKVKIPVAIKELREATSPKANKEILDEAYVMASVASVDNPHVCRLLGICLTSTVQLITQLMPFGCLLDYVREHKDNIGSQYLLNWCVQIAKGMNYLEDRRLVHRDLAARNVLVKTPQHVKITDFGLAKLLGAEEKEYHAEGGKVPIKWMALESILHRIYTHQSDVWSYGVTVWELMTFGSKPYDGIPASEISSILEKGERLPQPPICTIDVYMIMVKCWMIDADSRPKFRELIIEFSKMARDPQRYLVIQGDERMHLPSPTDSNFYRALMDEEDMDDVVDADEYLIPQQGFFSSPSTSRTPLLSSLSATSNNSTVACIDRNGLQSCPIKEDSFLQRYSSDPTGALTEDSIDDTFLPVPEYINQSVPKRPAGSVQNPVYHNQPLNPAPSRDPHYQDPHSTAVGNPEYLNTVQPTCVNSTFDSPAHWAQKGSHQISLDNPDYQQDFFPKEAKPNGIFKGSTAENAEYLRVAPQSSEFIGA
Briefly: Ba/F3-EGFR-Exon20-ASV cell anti-proliferative assay (CellTiter 96 MTS, 72 h). The note with it: Ba/F3-EGFR-Exon20-ASV cells. The method, then:
(§1) An expression vector, pLVX-IRES puro (Clontech) coding for human EGFR exon 20 insertions NPG (H773_V774insNPG) or ASV (V769_D770insASV), was transfected into HEK293 cells by the Trans-Lentiviral ORF Packaging System (Thermo Scientific), to produce virus encoding EGFR exon 20 insertions. Ba/F3 (DSMZ) cells maintained in RPMI 1640 medium supplemented with 10% fetal bovine serum, 200 μM L-glutamine/l 200 μg/mL penicillin/200 μg/mL streptomycin (Life Technology) and 10 ng/mL IL-3 (R&D system), were infected by EGFR Exon20 virus and subsequently selected by puromycin (Life Technology) selection and IL-3 depletion. […] The anti-proliferative activity of compounds were determined as follows: BaF3-EGFR-Exon20 cells (NPG or ASV) seeded in 96 well plates (2500 cells/well) were treated with test compound (dissolved in DMSO) at a series of concentrations (4-fold dilution, top concentration: 10,000 nM). The plates were incubated for 72 h in a 37° C. incubator with 5% CO2, and the number of viable cells in each well were measured indirectly by CellTiter 96® Aqueous One Solution Cell Proliferation Assay (Promega) This assay is a colorimetric method for determining the number of viable cells through measurement of their metabolic activity by detection of enzymatic conversion of tetrazolium salts into blue formazan derivatives. Reagent (20 μL) was added into each well, and the plates were returned to the incubator for 2 h. The absorbance in each well was then measured at 490 nm using an Envision plate reader (Perkin Elmer).

Test [3] concerns the target T3, Her2 exon 20 YVMA insertion (A775_G776ins YVMA) (Homo sapiens, UniProt P04626, INS775YVMA).
T3 construct: expressed in transfected cells; host or cells: Ba/F3 (murine pro-B) cells transduced with lentivirus from pLVX-IRES puro
Briefly: Ba/F3-Her2 Exon20 YVMA cell anti-proliferative assay (CellTiter 96 MTS, 72 h). The note with it: Ba/F3-Her2 Exon20 YVMA cells. The text has this:
A compound's ability in selectively inhibiting Her2 exon 20 YVMA insertion mutations can be assessed using Ba/F3 cells, a murine pro-B cell line, which have been transduced with Her2 Exon20 YVMA insertions. An expression vector, pLVX-IRES puro (Clontech) coding for […] (A775_G776ins YVMA), was transfected into HEK293 cells by the Trans-Lentiviral ORF Packaging System (Thermo Scientific), to produce virus encoding EGFR exon 20 insertions. Ba/F3 (DSMZ) cells maintained in RPMI 1640 medium supplemented with 10% fetal bovine serum, 200 μM L-glutamine/200 μg/mL penicillin/200 μg/mL streptomycin (Life Technology) and 10 ng/mL IL-3 (R&D system), were infected by EGFR Exon20 virus and subsequently selected by puromycin (Life Technology) selection and IL-3 depletion. Ba/F3 cells expressing Her2 Exon20 YVMA insertions (named Ba/F3-Her2 Exon20 YVMA) can proliferate in the absence of IL-3. The anti-proliferative activity of compounds was determined as follows: BaF3-Her2 Exon20 YVMA cells seeded in 96 well plates (2500 cells/well) were treated with test compound (dissolved in DMSO) at a series of concentrations (4-fold dilution, top concentration: 10,000 nM). The plates were incubated for 72 h in a 37° C. incubator with 5% CO2, and the number of viable cells in each well were measured indirectly by CellTiter 96@ Aqueous One Solution Cell Proliferation Assay (Promega; this assay is a colorimetric method for determining the number of viable cells through measurement of their metabolic activity by detection of enzymatic conversion of tetrazolium salts into blue formazan derivatives). Reagent (20 μL) was added into each well, and the plates were returned to the incubator for 2 h. The absorbance in each well was then measured at 490 nm using an Envision plate reader (Perkin Elmer).

Test [4] has as its target T4, human EGFR exon 20 insertion NPG (H773_V774insNPG) (Homo sapiens, UniProt P00533, INS772GNP).
T4 construct: expressed in transfected cells; host or cells: Ba/F3 (murine pro-B) cells transduced with lentivirus from pLVX-IRES puro
Put plainly: Ba/F3-EGFR-Exon20-NPG cell anti-proliferative assay (CellTiter 96 MTS, 72 h). The following applies: Ba/F3-EGFR-Exon20-NPG cells. How it is done: as §1

T4 sequence (P00533 with tags, fused parts or gaps INS772GNP): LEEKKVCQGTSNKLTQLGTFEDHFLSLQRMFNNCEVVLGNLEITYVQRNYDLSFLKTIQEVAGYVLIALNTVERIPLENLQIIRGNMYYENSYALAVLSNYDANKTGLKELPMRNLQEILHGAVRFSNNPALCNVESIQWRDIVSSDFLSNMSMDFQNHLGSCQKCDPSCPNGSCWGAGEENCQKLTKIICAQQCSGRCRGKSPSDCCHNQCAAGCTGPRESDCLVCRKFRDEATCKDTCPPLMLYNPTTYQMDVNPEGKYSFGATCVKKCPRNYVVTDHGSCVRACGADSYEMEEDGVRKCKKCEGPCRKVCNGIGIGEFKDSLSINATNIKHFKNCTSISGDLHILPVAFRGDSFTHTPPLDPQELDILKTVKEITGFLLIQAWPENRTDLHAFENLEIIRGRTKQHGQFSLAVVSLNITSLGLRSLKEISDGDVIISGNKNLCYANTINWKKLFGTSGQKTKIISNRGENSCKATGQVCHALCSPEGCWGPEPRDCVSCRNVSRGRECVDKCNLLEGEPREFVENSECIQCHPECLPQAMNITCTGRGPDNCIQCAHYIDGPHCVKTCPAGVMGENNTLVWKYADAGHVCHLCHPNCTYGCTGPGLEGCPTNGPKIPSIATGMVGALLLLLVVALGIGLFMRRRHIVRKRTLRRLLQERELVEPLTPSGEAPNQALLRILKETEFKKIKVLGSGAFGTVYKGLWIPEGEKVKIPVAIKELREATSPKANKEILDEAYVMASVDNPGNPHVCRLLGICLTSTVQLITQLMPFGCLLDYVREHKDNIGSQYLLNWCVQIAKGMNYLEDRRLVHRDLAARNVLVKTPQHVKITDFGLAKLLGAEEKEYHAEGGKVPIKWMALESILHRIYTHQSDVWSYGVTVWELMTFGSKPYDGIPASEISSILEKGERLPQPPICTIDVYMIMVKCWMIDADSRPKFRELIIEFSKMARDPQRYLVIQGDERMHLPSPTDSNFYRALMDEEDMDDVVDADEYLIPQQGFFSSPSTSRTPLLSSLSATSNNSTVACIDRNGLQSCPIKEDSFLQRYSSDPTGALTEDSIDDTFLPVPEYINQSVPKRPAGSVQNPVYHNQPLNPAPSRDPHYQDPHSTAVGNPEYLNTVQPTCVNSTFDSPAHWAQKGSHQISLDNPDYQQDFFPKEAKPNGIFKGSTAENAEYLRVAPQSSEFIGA
T3 sequence (P04626 with tags, fused parts or gaps INS775YVMA): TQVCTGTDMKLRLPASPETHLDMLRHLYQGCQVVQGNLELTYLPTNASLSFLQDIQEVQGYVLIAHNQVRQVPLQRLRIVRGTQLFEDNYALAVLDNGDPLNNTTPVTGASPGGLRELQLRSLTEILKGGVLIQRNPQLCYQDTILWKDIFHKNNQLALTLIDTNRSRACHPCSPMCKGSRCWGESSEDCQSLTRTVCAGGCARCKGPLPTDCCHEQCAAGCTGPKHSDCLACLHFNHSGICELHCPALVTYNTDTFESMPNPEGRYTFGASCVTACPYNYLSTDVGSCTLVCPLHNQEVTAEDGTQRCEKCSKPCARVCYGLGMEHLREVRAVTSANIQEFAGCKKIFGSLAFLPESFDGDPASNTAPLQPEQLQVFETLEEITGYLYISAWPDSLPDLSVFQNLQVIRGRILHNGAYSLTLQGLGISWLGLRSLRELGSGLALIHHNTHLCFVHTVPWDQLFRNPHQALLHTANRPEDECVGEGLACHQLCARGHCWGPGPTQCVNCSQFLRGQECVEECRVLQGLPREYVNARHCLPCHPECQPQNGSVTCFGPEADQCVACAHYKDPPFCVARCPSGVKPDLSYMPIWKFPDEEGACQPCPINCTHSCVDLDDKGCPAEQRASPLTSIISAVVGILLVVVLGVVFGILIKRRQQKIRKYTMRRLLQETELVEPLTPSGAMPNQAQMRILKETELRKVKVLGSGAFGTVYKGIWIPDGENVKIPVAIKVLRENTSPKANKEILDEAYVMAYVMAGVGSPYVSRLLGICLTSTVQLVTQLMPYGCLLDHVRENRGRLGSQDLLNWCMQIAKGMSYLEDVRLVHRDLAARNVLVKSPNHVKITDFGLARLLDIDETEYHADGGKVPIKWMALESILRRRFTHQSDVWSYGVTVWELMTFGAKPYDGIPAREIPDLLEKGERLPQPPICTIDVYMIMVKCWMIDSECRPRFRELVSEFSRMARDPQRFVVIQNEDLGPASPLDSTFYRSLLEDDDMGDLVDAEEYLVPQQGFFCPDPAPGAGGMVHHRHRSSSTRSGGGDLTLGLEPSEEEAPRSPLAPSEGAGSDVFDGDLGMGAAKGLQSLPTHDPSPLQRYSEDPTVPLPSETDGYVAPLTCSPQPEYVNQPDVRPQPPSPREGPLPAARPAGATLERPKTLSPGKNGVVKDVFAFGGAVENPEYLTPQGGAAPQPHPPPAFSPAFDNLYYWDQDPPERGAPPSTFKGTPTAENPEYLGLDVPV

Usually IC50 stands for the concentration that gives 50% inhibition. With `C=CC(=O)Nc1cc(Nc2ncc(Cl)c(-c3cn4c5c(cccc35)CCC4)n2)c(CC)cc1N(C)CCN(C)C` [Example 18, N-(5-((5-chloro-4-(5,6-dihydro-4H-pyrrolo[3,2,1-ij]quinolin-1-yl)pyrimidin-2-yl)amino)-2-((2-(dimethylamino)ethyl)(methyl)amino)-4-ethylphenyl)acrylamide], the “EGFR exon 19 deletion and exon 20 T790M mutation IC50” value in test [1] was “A (IC50 value for the indicated mutant below about 100 nM)”. Further, the figures for the half-maximal inhibitory concentration (IC50) in test [2], in test [3] and in test [4] were below 100 nM, 100 to 500 nM and below 100 nM, respectively.

Regarding `C=CC(=O)Nc1cc(Nc2ncc(OC)c(-c3cn4c5c(cccc35)CCC4)n2)c(OC)cc1N(C)CCN(C)C` [Example 19, N-(5-((4-(5,6-dihydro-4H-pyrrolo[3,2,1-ij]quinolin-1-yl)-5-methoxypyrimidin-2-yl)amino)-2-((2-(dimethylamino)ethyl)(methyl)amino)-4-methoxyphenyl)acrylamide], in test [1], the “EGFR exon 19 deletion and exon 20 T790M mutation IC50” value is recorded as “A (IC50 value for the indicated mutant below about 100 nM)”. For the same compound, the IC50 in test [2] is below 100 nM; in test [3] it was 100 to 500 nM; in test [4], below 100 nM.

For the compound `C#Cc1cnc(Nc2cc(NC(=O)C=C)c(N(C)CCN(C)C)cc2OC)nc1-c1cn2c3c(cccc13)CCC2` [Example 31, N-(5-((4-(5,6-dihydro-4H-pyrrolo[3,2,1-ij]quinolin-1-yl)-5-ethynylpyrimidin-2-yl)amino)-2-((2-(dimethylamino)ethyl)(methyl)amino)-4-methoxyphenyl)acrylamide], in test [1], the “EGFR exon 19 deletion and exon 20 T790M mutation IC50” value is “A (IC50 value for the indicated mutant below about 100 nM)”. The IC50 in test [2], in test [3] and in test [4] was below 100 nM in each case.

`C=CC(=O)Nc1cc(Nc2ncc(CCC(C)O)c(-c3cn4c5c(cccc35)CCC4)n2)c(OC)cc1N(C)CCN(C)C` (stereo not shown) [Example 32, N-(5-((4-(5,6-dihydro-4H-pyrrolo[3,2,1-ij]quinolin-1-yl)-5-(3-hydroxybutyl)pyrimidin-2-yl)amino)-2-((2-(dimethylamino)ethyl)(methyl)amino)-4-methoxyphenyl)acrylamide]: the “EGFR exon 19 deletion and exon 20 T790M mutation IC50” value in test [1] is given as “A (IC50 value for the indicated mutant below about 100 nM)”. Also, the IC50 in test [2] is below 100 nM; in test [3], 100 to 500 nM; in test [4], below 100 nM.

Consider `C=CC(=O)Nc1cc(Nc2ncc(CCCOC)c(-c3cn4c5c(cccc35)CCC4)n2)c(OC)cc1N(C)CCN(C)C` [Example 33, N-(5-((4-(5,6-dihydro-4H-pyrrolo[3,2,1-ij]quinolin-1-yl)-5-(3-methoxypropyl)pyrimidin-2-yl)amino)-2-((2-(dimethylamino)ethyl)(methyl)amino)-4-methoxyphenyl)acrylamide], for which, in test [1], the “EGFR exon 19 deletion and exon 20 T790M mutation IC50” value is recorded as “A (IC50 value for the indicated mutant below about 100 nM)”. Also, the IC50 in test [2], in test [3] and in test [4] was below 100 nM throughout.

On to `C=CC(=O)Nc1cc(Nc2ncc(CCC3CCCC3)c(-c3cn4c5c(cccc35)CCC4)n2)c(OC)cc1N(C)CCN(C)C` [Example 35], for which the “EGFR exon 19 deletion and exon 20 T790M mutation IC50” value in test [1] is recorded as “C (IC50 value for the indicated mutant between greater than about 500 to about 1 μM)”. Besides, the IC50 lay in the range of 500 to 1000 nM in test [2], 500 to 1000 nM in test [3] and 100 to 500 nM in test [4].

Turning to `C=CC(=O)Nc1cc(Nc2ncc(CCC(=O)OC)c(-c3cn4c5c(cccc35)CCC4)n2)c(OC)cc1N(C)CCN(C)C` [Example 39, methyl 3-(2-((5-acrylamido-4-((2-(dimethylamino)ethyl)(methyl)amino)-2-methoxyphenyl)amino)-4-(5,6-dihydro-4H-pyrrolo[3,2,1-ij]quinolin-1-yl)pyrimidin-5-yl)propanoate], the “EGFR exon 19 deletion and exon 20 T790M mutation IC50” value in test [1] was “A (IC50 value for the indicated mutant below about 100 nM)”. Besides, the IC50 was 100 to 500 nM in test [2], 100 to 500 nM in test [3] and below 100 nM in test [4].

Turning to `C=CC(=O)Nc1cc(Nc2ncc(CCC#N)c(-c3cn4c5c(cccc35)CCC4)n2)c(OC)cc1N(C)CCN(C)C` [Example 41, N-(5-((5-(2-cyanoethyl)-4-(5,6-dihydro-4H-pyrrolo[3,2,1-ij]quinolin-1-ul)pyrimidin-2-yl)amino)-2-((2-(dimethylamino)ethyl)(methyl)amino)-4-methoxyphenyl)acrylamide], the “EGFR exon 19 deletion and exon 20 T790M mutation IC50” value in test [1] is on record as “A (IC50 value for the indicated mutant below about 100 nM)”. Also, the IC50 in test [2], in test [3] and in test [4] was below 100 nM throughout.

For `C=CC(=O)Nc1cc(Nc2ncc(/C=C/C#N)c(-c3cn4c5c(cccc35)CCC4)n2)c(OC)cc1N(C)CCN(C)C` [Example 42, (E)-N-(5-((5-(2-cyanovinyl)-4-(5,6-dihydro-4H-pyrrolo[3,2,1-ij]quinolin-1-yl)pyrimidin-2-yl)amino)-2-((2-(dimethylamino)ethyl)(methyl)amino)-4-methoxyphenyl)acrylamide], the “EGFR exon 19 deletion and exon 20 T790M mutation IC50” value in test [1] is recorded as “A (IC50 value for the indicated mutant below about 100 nM)”. Further, the IC50 in test [2], in test [3] and in test [4] was below 100 nM each time.

As to `C=CC(=O)Nc1cc(Nc2ncc(/C=C\C#N)c(-c3cn4c5c(cccc35)CCC4)n2)c(OC)cc1N(C)CCN(C)C` [Example 43, (Z)-N-(5-((5-(2-cyanovinyl)-4-(5,6-dihydro-4H-pyrrolo[3,2,1-ij]quinolin-1-yl)pyrimidin-2-yl)amino)-2-((2-(dimethylamino)ethyl)(methyl)amino)-4-methoxyphenyl)acrylamide], in test [1], the “EGFR exon 19 deletion and exon 20 T790M mutation IC50” value is given as “A (IC50 value for the indicated mutant below about 100 nM)”. Moreover, the IC50 in test [2], in test [3] and in test [4] was below 100 nM each time.
